From patent publication US20230270713A1, “Administration of Resiniferatoxin For Treatment of Bladder Pain or Bladder Cancer” (Sorrento Therapeutics, Inc., priority 2020, published 2023)
Entries after “also recorded” stand apart in the source; their conditions may differ.

What was measured:
[1] = Adverse effects in dogs with bladder TCC (Example F); format: in vivo, dog; conditions: 16 dogs with bladder TCC
Method: (§1) RTX was administered as a one-time treatment into the bladder on Day 0 with the option of repeating RTX at a future study day. A Foley urinary catheter was placed using a sterile standard technique. An abdominal ultrasound was concurrently performed to ensure that the tip of the catheter was in the bladder lumen. Urine was removed using a catheter tipped syringe.
(§2) RTX was diluted in 0.9% NaCl and then infused into the bladder. The catheter was then flushed with 5-6 mL of 0.9% NaCl to ensure the entire IVP volume was administered. The Foley catheter was capped and remained in place for a period of 30 minutes post-infusion. The bladder was then emptied prior to removal of the Foley catheter. The timing of recovery was managed on an individual basis, but it was recommended to initiate recovery approximately 10 minutes after RTX infusion.

[2] = test system: S1 and S2 DRG neurons expressing CGRP and SP; experiment: CGRP and SP positive neurons in S1 and S2 dorsal root ganglia of cats (IHC); format: in vivo, cat
Method: At day 14 the cats were anesthetized and perfused with saline followed by 10% formalin. After confirmation of successful euthanasia, lumbar and sacral segments of the spinal cord with corresponding dorsal spinal ganglia, the urinary bladder and urethra were harvested and tissues were prepared for immunohistochemistry.
Previous studies have shown that TRPV1-immunoreactive axons co-express Calcitonin gene-related peptide (CGRP) and substance P (SP) (See, e.g., Sharrad et al. (2015) Neurosci. Lett., 599: 164-171; Bae et al. (2004) J. Comp. Neurol. 478: 62-71). Since feline bladder connective tissue, smooth muscle, and cell bodies of S2 DRG express CGRP+ and SP+ axons, expression of CGRP and SP were used in these studies to identify the majority of TRPV1 axons innervating the cat bladder and TRPV1+ cell bodies in cat S2 dorsal root ganglia (DRG).
The percent of cell bodies from S1 and S2 DRG expressing SP and CGRP from feline bladders after intravesical application of either control (saline) or RTX (5, 25 or 50 mcg) was also examined using immunohistochemistry and confocal laser microscopy as described above. […] CGRP positive cell bodies were small to medium-size.

[3] = test system: dogs with bladder transitional cell carcinoma; experiment: Change in lower urinary tract signs in dogs with bladder TCC (Example F); format: in vivo, dog; conditions: for Improvement of at Least 1 Score, dogs n/N / Improvement of at Least 1 Score, percent of dogs / Improvement of at Least 2 Scores, dogs n/N / Improvement of at Least 2 Scores, percent of dogs / Improvement in at least 1 score (lower urinary tract signs), dogs n/N / Improvement in at least 1 score, percent of dogs / Improvement in at least 2 scores (lower urinary tract signs), dogs n/N / Improvement in at least 2 scores, percent of dogs: dogs with bladder TCC; for Improvement in at least 1 score (lower urinary tract signs), dogs n/N / Improvement in at least 1 score, percent of dogs / Improvement in at least 2 scores (lower urinary tract signs), dogs n/N / Improvement in at least 2 scores, percent of dogs: all RTX doses (25-100 μg)
Method: Pre-treatment with diphenhydramine HCl intramuscular (2 mg/kg) was administered 30-45 minutes prior to RTX administration. Enrolled dogs were anesthetized and were monitored by auscultation and chest movement observation. Heart rate and oxygenation were monitored using a pulse oximeter throughout the duration of anesthesia. Blood pressure was monitored. Body temperature was maintained using a heated water blanket or equivalent thermal barrier (e.g., Vetko). Lactated Ringers Solution (LRS), or other medically appropriate fluid therapy, were used to maintain adequate hydration (approximately 2 mL/kg/hr intravenous (IV)) and a fluid bolus of LRS (2-5 mL/kg IV) as needed.
as §1, §2
RTX total dose ranged from 25-100 μg (1.17-5.21 μg/kg). RTX was instilled at concentration of 1.0 μg/mL 2.0 μg/mL or 2.5 μg/mL.
Primary effectiveness variables: Evaluations of lower urinary tract signs, as reported by the owner, were used as the primary effectiveness endpoint for the study. The character of urination, frequency of urination (day), frequency of urination (night) and blood in urine (Knapp, 2010) were monitored. Blood in urine was assessed by owner through daily collection of first morning sample and the owner completed the “Owner urine collection log.” Comparisons were made for each parameter between Day 0 and subsequent study visits on Days 7 (±2), 14 (±2), 28 (±2), 56 (±2) and 84 (±2). Treatment success was defined as at least one grade improvement for each parameter.
At each study visit, the investigator graded lower urinary tract signs with input from the owner. Improvement in 1 or 2 grades are summarized by total RTX dose in Table 16 and then comparing those dogs receiving an RTX dose <3 μg/kg and 3 μg/kg in Table 17.

[4] = dogs with bladder TCC evaluable at Days 14-84

Structure (SMILES): C=C(C)[C@]12C[C@@H](C)[C@@]34O[C@](Cc5ccccc5)(O[C@@H]1[C@@H]3C=C(COC(=O)Cc1ccc(O)c(OC)c1)C[C@]1(O)C(=O)C(C)=C[C@@H]41)O2 [RTX, resiniferatoxin]
- Tolerability [1]: very well tolerated
- dose dependence of the most commonly reported AE (emesis, diarrhea, anorexia) [1]: did not appear to be dose dependent
- AE anorexia, number of dogs ([1]; RTX 25-100 μg intravesical): 4 dogs
- AE anorexia, percent of dogs ([1]; RTX 25-100 μg intravesical): 25.0%
- AE diarrhea, number of dogs ([1]; RTX 25-100 μg intravesical): 5 dogs
- AE diarrhea, percent of dogs ([1]; RTX 25-100 μg intravesical): 31.3%
- AE emesis, number of dogs ([1]; RTX 25-100 μg intravesical): 6 dogs
- AE emesis, percent of dogs ([1]; RTX 25-100 μg intravesical): 37.5%
- AE lethargy, number of dogs ([1]; RTX 25-100 μg intravesical): 4 dogs
- AE lethargy, percent of dogs ([1]; RTX 25-100 μg intravesical): 25.0%
- dogs with an SAE ([1]; SAE considered most likely related to tumor progression): 1 dog
- severity of the most common AEs ([1]; except one anorexia event considered severe): mild to moderate (Grade 1 or 2)
- number of neurons (cell bodies) expressing CGRP and SP in S2 DRG ([2]; cat, single 25 mcg intravesical, vs saline control): does not decrease; also recorded: did not modify
- percentage of CGRP+ neurons in S1 DRG and S2 DRG ([2]; cats, 5, 25 and 50 mcg, 14 days post treatment, vs control): did not affect
- percentage of cell bodies expressing CGRP and SP in S1 and S2 DRG ([2]; cats, 5, 25 or 50 mcg intravesical, vs control): did not affect
- percentage of SP+ neurons in S1 DRG and S2 DRG ([2]; cats, 14 days post-treatment): comparable to the control
- dogs with improvement in at least 1 urinary symptom grade at each visit [3, 4]: more than 50%
- dogs with improvement in at least 2 grades at each visit [3, 4]: more than 40%
- Improvement of at Least 1 Score, dogs n/N ([3]; RTX <3 μg/kg, Day 7): 4/7
- Improvement of at Least 1 Score, percent of dogs ([3]; RTX <3 μg/kg, Day 7): (57.1%)
- Improvement of at Least 2 Scores, dogs n/N ([3]; RTX <3 μg/kg, Day 7): 2/7
- Improvement of at Least 2 Scores, percent of dogs ([3]; RTX <3 μg/kg, Day 7): (28.6%)
- Improvement of at Least 1 Score, dogs n/N ([3]; RTX <3 μg/kg, Day 14): 5/7
- Improvement of at Least 1 Score, percent of dogs ([3]; RTX <3 μg/kg, Day 14): (71.4%)
- Improvement of at Least 2 Scores, dogs n/N ([3]; RTX <3 μg/kg, Day 14): 3/7
- Improvement of at Least 2 Scores, percent of dogs ([3]; RTX <3 μg/kg, Day 14): (42.9%)
- Improvement of at Least 1 Score, dogs n/N ([3]; RTX <3 μg/kg, Day 28): 4/5
- Improvement of at Least 1 Score, percent of dogs ([3]; RTX <3 μg/kg, Day 28): (80.0%)
- Improvement of at Least 2 Scores, dogs n/N ([3]; RTX <3 μg/kg, Day 28): 3/5
- Improvement of at Least 2 Scores, percent of dogs ([3]; RTX <3 μg/kg, Day 28): (60.0%)
- Improvement of at Least 1 Score, dogs n/N ([3]; RTX <3 μg/kg, Day 56): 4/5
- Improvement of at Least 1 Score, percent of dogs ([3]; RTX <3 μg/kg, Day 56): (80.0%)
- Improvement of at Least 2 Scores, dogs n/N ([3]; RTX <3 μg/kg, Day 56): 3/5
- Improvement of at Least 2 Scores, percent of dogs ([3]; RTX <3 μg/kg, Day 56): (60.0%)
- Improvement of at Least 1 Score, dogs n/N ([3]; RTX <3 μg/kg, Day 84): 2/2
- Improvement of at Least 1 Score, percent of dogs ([3]; RTX <3 μg/kg, Day 84): (100.0%)
- Improvement of at Least 2 Scores, dogs n/N ([3]; RTX <3 μg/kg, Day 84): 2/2
- Improvement of at Least 2 Scores, percent of dogs ([3]; RTX <3 μg/kg, Day 84): (100.0%)
- Improvement of at Least 1 Score, dogs n/N ([3]; RTX >= 3 μg/kg, Day 7): 3/7
- Improvement of at Least 1 Score, percent of dogs ([3]; RTX >= 3 μg/kg, Day 7): (42.9%)
- Improvement of at Least 2 Scores, dogs n/N ([3]; RTX >= 3 μg/kg, Day 7): 2/7
- Improvement of at Least 2 Scores, percent of dogs ([3]; RTX >= 3 μg/kg, Day 7): (28.6%)
- Improvement of at Least 1 Score, dogs n/N ([3]; RTX >= 3 μg/kg, Day 14): 5/7
- Improvement of at Least 1 Score, percent of dogs ([3]; RTX >= 3 μg/kg, Day 14): (71.4%)
- Improvement of at Least 2 Scores, dogs n/N ([3]; RTX >= 3 μg/kg, Day 14): 3/7
- Improvement of at Least 2 Scores, percent of dogs ([3]; RTX >= 3 μg/kg, Day 14): (42.9%)
- Improvement of at Least 1 Score, dogs n/N ([3]; RTX >= 3 μg/kg, Day 28): 4/6
- Improvement of at Least 1 Score, percent of dogs ([3]; RTX >= 3 μg/kg, Day 28): (66.7%)
- Improvement of at Least 2 Scores, dogs n/N ([3]; RTX >= 3 μg/kg, Day 28): 2/6
- Improvement of at Least 2 Scores, percent of dogs ([3]; RTX >= 3 μg/kg, Day 28): (33.3%)
- Improvement of at Least 1 Score, dogs n/N ([3]; RTX >= 3 μg/kg, Day 56): 3/5
- Improvement of at Least 1 Score, percent of dogs ([3]; RTX >= 3 μg/kg, Day 56): (60.0%)
- Improvement of at Least 2 Scores, dogs n/N ([3]; RTX >= 3 μg/kg, Day 56): 2/5
- Improvement of at Least 2 Scores, percent of dogs ([3]; RTX >= 3 μg/kg, Day 56): (40.0%)
- Improvement of at Least 1 Score, dogs n/N ([3]; RTX >= 3 μg/kg, Day 84): 2/5
- Improvement of at Least 1 Score, percent of dogs ([3]; RTX >= 3 μg/kg, Day 84): 40.0%
- Improvement of at Least 2 Scores, dogs n/N ([3]; RTX >= 3 μg/kg, Day 84): 1/5
- Improvement of at Least 2 Scores, percent of dogs ([3]; RTX >= 3 μg/kg, Day 84): 20.0%
- Improvement in at least 1 score (lower urinary tract signs), dogs n/N ([3]; Day 14): 10/14
- Improvement in at least 1 score, percent of dogs ([3]; Day 14): 71.4%
- Improvement in at least 2 scores (lower urinary tract signs), dogs n/N ([3]; Day 14): 7/14
- Improvement in at least 2 scores, percent of dogs ([3]; Day 14): 50.0%
- Improvement in at least 1 score (lower urinary tract signs), dogs n/N ([3]; Day 28): 8/11
- Improvement in at least 1 score, percent of dogs ([3]; Day 28): 72.7%
- Improvement in at least 2 scores (lower urinary tract signs), dogs n/N ([3]; Day 28): 5/11
- Improvement in at least 2 scores, percent of dogs ([3]; Day 28): 45.5%
- Improvement in at least 1 score (lower urinary tract signs), dogs n/N ([3]; Day 56): 7/10
- Improvement in at least 1 score, percent of dogs ([3]; Day 56): 70.0%
- Improvement in at least 2 scores (lower urinary tract signs), dogs n/N ([3]; Day 56): 5/10
- Improvement in at least 2 scores, percent of dogs ([3]; Day 56): 50.0%
- Improvement in at least 1 score (lower urinary tract signs), dogs n/N ([3]; Day 84): 4/7
- Improvement in at least 1 score, percent of dogs ([3]; Day 84): 57.1%
- Improvement in at least 2 scores (lower urinary tract signs), dogs n/N ([3]; Day 84): 3/7
- Improvement in at least 2 scores, percent of dogs ([3]; Day 84): 42.9%
- dogs showing improved urine scores after a 2nd RTX administration ([3]; of the 6 dogs with bladder TCC that received a 2nd RTX administration): 1 dog
